The source of these data is patent US7169942B2, “Cannabinoid derivatives, methods of making, and use thereof” (priority 2003, dated 2007).

Read-outs that look alike come from different tables or passages of the source. Where only a bound is given, the exact number is not on record here.

One test has as its target CB1 (Rattus norvegicus, UniProt P20272). The note with it: literature value, highly potent CB1 analogs; read-out: Ki of reference cannabinoid; cited from earlier work.
The target in another test is T1, human CB1 receptor (Homo sapiens, UniProt P21554).
T1 construct: purchased Perkin-Elmer Life Sciences, Inc. Lot #1929; host or cells: HEK293 (HEK293 EBNA according to b236 for compounds 33-36)
T1 sequence (P21554 whole entry): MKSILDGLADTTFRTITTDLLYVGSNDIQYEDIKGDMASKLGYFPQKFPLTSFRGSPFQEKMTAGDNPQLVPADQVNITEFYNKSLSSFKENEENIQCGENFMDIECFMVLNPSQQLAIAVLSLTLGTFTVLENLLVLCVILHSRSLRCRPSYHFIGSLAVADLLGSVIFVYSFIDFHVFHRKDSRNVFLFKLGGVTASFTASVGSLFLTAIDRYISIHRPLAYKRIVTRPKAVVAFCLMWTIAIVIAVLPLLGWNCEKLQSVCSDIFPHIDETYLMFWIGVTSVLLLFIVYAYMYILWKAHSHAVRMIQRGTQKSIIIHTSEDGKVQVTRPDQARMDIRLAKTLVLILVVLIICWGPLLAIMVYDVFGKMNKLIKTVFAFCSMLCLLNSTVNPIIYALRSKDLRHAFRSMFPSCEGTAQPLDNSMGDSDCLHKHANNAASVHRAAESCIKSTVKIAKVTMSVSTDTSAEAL
The test can be described thus: biochemical. The format is binding.

A further test deals with T2, human CB2 receptor (Homo sapiens, UniProt P34972).
T2 construct: purchased Perkin-Elmer Life Sciences, Inc. Lot #1930
T2 sequence (P34972 whole entry): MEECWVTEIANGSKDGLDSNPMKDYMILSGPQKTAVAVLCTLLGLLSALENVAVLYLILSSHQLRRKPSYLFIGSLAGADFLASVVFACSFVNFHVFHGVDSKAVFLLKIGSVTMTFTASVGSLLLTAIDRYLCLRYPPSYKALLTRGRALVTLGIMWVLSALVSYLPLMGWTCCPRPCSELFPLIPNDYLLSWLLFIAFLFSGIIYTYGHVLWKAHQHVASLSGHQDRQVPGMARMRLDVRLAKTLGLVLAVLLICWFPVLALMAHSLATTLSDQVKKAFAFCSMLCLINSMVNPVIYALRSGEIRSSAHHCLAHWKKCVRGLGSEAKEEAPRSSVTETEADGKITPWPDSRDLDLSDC
The test can be described thus: CB2 receptor binding assay, displacement of [3H]CP 55,940. For orientation: In a radioligand displacement assay an active substance lowers the binding of a labelled ligand.

The subject of test [1] is rat hemorrhagic shock model. The test can be described thus: Rat hemorrhagic shock model. To be noted: FIG. 22.
A further test deals with C6 glioma cells. Nature of the test: Cytotoxicity on C6 glioma cells (MTS, CellTiter 96). The note with it: concentrations of 8 μM.
Setting [2] is: Table 8, SEM in parentheses, n≧2 in triplicate, read-out: CB1 Ki.
The mark [3] stands for this setting: Table 8, SEM in parentheses, n≧2 in triplicate.
Setting [4] is: Table 1, affinity ratio of Ki values.
The mark [5] stands for this setting: Table 3, human receptor in HEK293 EBNA cell membranes, three experiments in duplicate, SEM in parentheses, read-out: CB1 Ki.
The mark [6] stands for this setting: Table 3, human receptor in HEK293 EBNA cell membranes, three experiments in duplicate, SEM in parentheses, read-out: CB2 Ki.
The mark [7] stands for this setting: Table 1, membranes of HEK293 cells with human CB1, SEM in parentheses, n≧2 in triplicate, read-out: CB1 Ki.
The mark [8] stands for this setting: Table 3, human receptor in HEK293 EBNA cell membranes, three experiments in duplicate, SEM in parentheses.

Sequence of CB1 (P20272 whole entry): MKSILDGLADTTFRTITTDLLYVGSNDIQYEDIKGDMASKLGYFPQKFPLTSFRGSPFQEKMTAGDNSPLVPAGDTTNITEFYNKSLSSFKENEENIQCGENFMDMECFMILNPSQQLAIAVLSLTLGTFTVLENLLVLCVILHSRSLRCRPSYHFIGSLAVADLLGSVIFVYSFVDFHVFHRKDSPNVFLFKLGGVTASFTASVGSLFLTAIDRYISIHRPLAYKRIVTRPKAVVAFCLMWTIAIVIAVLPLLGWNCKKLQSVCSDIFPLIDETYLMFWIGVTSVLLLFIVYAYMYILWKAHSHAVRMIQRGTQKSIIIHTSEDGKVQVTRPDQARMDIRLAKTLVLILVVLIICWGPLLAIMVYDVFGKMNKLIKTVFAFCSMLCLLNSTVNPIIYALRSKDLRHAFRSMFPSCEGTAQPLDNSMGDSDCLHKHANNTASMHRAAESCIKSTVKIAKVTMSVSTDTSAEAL

On to `CCCCCCC1(c2cc(O)c3c(c2)OC(C)(C)C2CC=C(C)CC32)SCCS1` (centres unmarked) [DTHT, 1′,1′-dithiolaneheptyl-Δ^8-THC], for which, at CB1, the inhibition constant (Ki) (as a rule, a dissociation constant, usually derived from enzyme kinetics or from competition with a known ligand) is 0.32 nM.
As to `CC1=CCC2C(C1)c1c(O)cc(C(C)(C)c3cccc(C)c3)cc1OC2(C)C` (centres unmarked) [Compound 51, 6,6,9-Trimethyl-3-(1-methyl-1-m-tolyl-ethyl)-6a,7,10,10a-tetrahydro-6H-benzo[c]chromen-1-ol], the Ki on human CB1 receptor (setting [2]) was 2.53 nM; at human CB2 receptor, 1.13 nM. At human CB1 receptor (Table 8, ratio of Ki values), the “Ratio CB1/CB2” value is recorded as 2.24.
On to `CC1=CCC2C(C1)c1c(O)cc(C(C)(C)c3cccs3)cc1OC2(C)C` (centres unmarked) [Compound 55, 6,6,9-Trimethyl-3-(1-methyl-1-thiophen-2-yl-ethyl)-6a,7,10,10a-tetrahydro-6H-benzo[c]chromen-1-ol], for which, at human CB1 receptor, the affinity, expressed as Ki, was 1.08 nM and the “Ratio CB1/CB2” value was 4.00. On human CB2 receptor, affinity was put at a Ki of 0.27 nM. Also, the “CB2 Ki” value on human CB2 receptor (setting [3]) is given as “sub-nanomolar”.
Take `CC1=CCC2C(C1)c1c(O)cc(C(C)(C)C3CCCC3)cc1OC2(C)C` (centres unmarked) [Compound 27, 3-(1-Cyclopentyl-1-methyl-ethyl)-6,6,9-trimethyl-6a,7,10,1a-tetrahydro-6H-benzo[c]chromen-1-ol]: on human CB1 receptor (setting [4]), the “Ratio CB1/CB2” value is recorded as 0.84. For the same compound, the Ki is 0.34 nM on human CB1 receptor (read-out: CB1 Ki) and 0.39 nM at human CB2 receptor (Table 1, membranes of CHO-K1 cells with human CB2, SEM in parentheses, n≧2 in triplicate, read-out: CB2 Ki).
As for `CC1=CC[C@@H]2[C@@H](C1)c1c(O)cc(C(=O)c3ccccc3)cc1OC2(C)C` [Compound 36, methanone-phenyl-Δ^8-THC], the “Ratio CB1/CB2” value on human CB1 receptor stood at 12.6. Moreover, the “fold decrease in binding affinity for the CB1 receptor compared to Δ8-THC” value on human CB1 receptor is recorded as about 10 fold. Moreover, the Ki amounted to 297 nM at human CB1 receptor (setting [5]) and 23.6 nM at human CB2 receptor (setting [6]).
On to `CC1=CCC2C(C1)c1c(O)cc(C3(C4CCCC4)SCCS3)cc1OC2(C)C` (centres unmarked) [Compound 24, 3-(2-Cyclopentyl-[1,3]dithiolan-2-yl)-6,6,9-trimethyl-6a,7,10,10a-tetrahydro-6H-benzo[c]chromen-1-ol], for which the “Ratio CB1/CB2” value on human CB1 receptor (setting [4]) is 3.46. The Ki at human CB1 receptor (setting [7]) amounted to 9.49 nM. On human CB2 receptor, the Ki turned out to be 2.74 nM and the “fold decrease in affinity at the CB2 receptor (dithiolane ring)” value is on record as 7 fold.
Consider `CC1=CCC2C(C1)c1c(O)cc(Cc3ccccc3)cc1OC2(C)C` (centres unmarked) [Compound 35, methylene-phenyl-Δ^8-THC], for which the inhibitory constant (Ki) came out at 67.6 nM at human CB1 receptor (setting [5]) and 85.9 nM at human CB2 receptor (setting [6]). The “Ratio CB1/CB2” value at human CB1 receptor (Table 3, ratio of Ki values) stood at 0.78.
Turning to `CC1=CCC2C(C1)c1c(O)cc(C3(C4CCCCC4)SCCS3)cc1OC2(C)C` (centres unmarked) [Compound 25, 3-(2-Cyclohexyl-[1,3]dithiolan-2-yl)-6,6,9-trimethyl-6a,7,10,10a-tetrahydro-6H-benzo[c]chromen-1-ol], the “Ratio CB1/CB2” value on human CB1 receptor is recorded as 1.77. Moreover, the inhibition constant Ki on human CB1 receptor (setting [7]) came to 1.86 nM; at human CB2 receptor, 1.05 nM. Besides, in test [1] (12 mg/kg in combination with NS-398 2 mg/kg), the “change in mean blood pressure versus time relative to positive control Δ8-THC and NS-398” value is given as “improved behavior relative to the positive control”.
Turning to `CC1=CCC2C(C1)c1c(O)cc(C(C)(C)c3ccc(F)cc3)cc1OC2(C)C` (centres unmarked) [Compound 54, 3-[1-(4-Fluoro-phenyl)-1-methyl-ethyl]-6,6,9-trimethyl-6a,7,10,10a-tetrahydro-6H-benzo[c]chromen-1-ol], at human CB1 receptor, the “Ratio CB1/CB2” value worked out at 0.79. Also, the Ki on human CB1 receptor (setting [2]) was determined as 2.8 nM; on human CB2 receptor, 3.54 nM. In addition, the “CB2 Ki” value on human CB2 receptor (setting [3]) is reported as “did show enhanced affinity for the CB-2 receptor”.
As for `CC1=CCC2C(C1)c1c(O)cc(C3(C4CCCCCC4)SCCS3)cc1OC2(C)C` (centres unmarked) [Compound 26, 3-(2-Cycloheptyl-[1,3]dithiolan-2-yl)-6,6,9-trimethyl-6a,7,10,10a-tetrahydro-6H-benzo[c] chromen-1-ol], at human CB1 receptor (setting [4]), the “Ratio CB1/CB2” value is listed as 0.27. The Ki at human CB1 receptor (setting [7]) was 1.76 nM. Also, at human CB2 receptor, the Ki was 6.62 nM and the “fold decrease in affinity at the CB2 receptor (dithiolane ring)” value is given as 33 fold.
In the case of `CC1=CCC2C(C1)c1c(O)cc(C(C)(C)c3ccc(Cl)cc3)cc1OC2(C)C` (centres unmarked) [Compound 52, 3-[1-(4-Chloro-phenyl)-1-methyl-ethyl]-6,6,9-trimethyl-6a,7,10,10a-tetrahydro-6H-benzo[c]chromen-1-ol], the values for the inhibitory constant (Ki) on human CB1 receptor (setting [2]) and on human CB2 receptor were 76.1 nM and 12.4 nM, respectively.
Consider `CCCCC1(c2cc(O)c3c(c2)OC(C)(C)C2CC=C(C)CC32)SCCS1` (centres unmarked) [Compound 23, 3-(2-Butyl-[1,3]dithiolan-2-yl)-6,6,9-trimethyl-6a,7,10,10a-tetrahydro-6H-benzo[c]chromen-1-ol], for which, on human CB1 receptor, the “fold increase in binding to the CB1 receptor relative to Δ8-THC” value is reported as 33 fold and the “fold increased affinity for the CB1 receptor relative to the carbon equivalent 24” value is 4.7 fold. At human CB1 receptor (setting [4]), the “Ratio CB1/CB2” value is given as 1.47. Further, the “CB1 Ki” value at human CB1 receptor (Table 1, membranes of HEK293 cells with human CB1, SEM in parentheses, n≧2 in triplicate) is on record as “sub-nanomolar”. On human CB1 receptor (setting [7]), the inhibition constant (Ki) was determined as 0.85 nM. In addition, on human CB2 receptor, the inhibition constant Ki is 0.58 nM, the “fold increase in binding to the CB2 receptor relative to Δ8-THC” value is 47 fold and the “fold increased affinity for the CB2 receptor relative to the carbon equivalent 24” value is on record as 11 fold. Besides, on human CB2 receptor (Table 1, membranes of CHO-K1 cells with human CB2, SEM in parentheses, n≧2 in triplicate), the “CB2 Ki” value is recorded as “sub-nanomolar”.
For the compound `CCCCCCC(C)(C)c1cc(O)c2c(c1)OC(C)(C)C1CC=C(C)CC21` (centres unmarked) [DMHT, 1′,1′-dimethylheptyl-Δ^8-THC], the inhibition constant (Ki) at CB1 was 0.77 nM.
Turning to `CC1=CCC2C(C1)c1c(O)cc(C3(c4ccccc4)SCCS3)cc1OC2(C)C` (centres unmarked) [Compound 34, dithiolanyl-phenyl-Δ^8-THC], the “fold decrease in affinity relative to the 1′-cyclohexyl congener” value on human CB1 receptor is reported as 10 fold. Moreover, the inhibition constant Ki on human CB1 receptor (setting [5]) turned out to be 17.3 nM; at human CB2 receptor (setting [6]), 17.6 nM.
Turning to `CCCCC(=O)c1cc(OC)cc(OC)c1` [Compound 5, 1-(3,5-Dimethoxy-phenyl)-pentan-1-one], the “CB1 Ki” value at human CB1 receptor (setting [8]) was “significantly reduced binding affinities”. In addition, on human CB2 receptor (setting [8]), the “CB2 Ki” value is “significantly reduced binding affinities”.
In the case of `CC1=CCC2C(C1)c1c(O)cc(C(C)(C)c3cccc(Cl)c3)cc1OC2(C)C` (centres unmarked) [Compound 53, 3-[1-(3-Chloro-phenyl)-1-methyl-ethyl]-6,6,9-trimethyl-6a,7,10,10a-tetrahydro-6H-benzo[c]chromen-1-ol], the inhibition constant (Ki) came out at 18.8 nM on human CB1 receptor (setting [2]) and 1.68 nM at human CB2 receptor.
“gem-dimethyl-phenyl-Δ^8-THC [Compound 33]”: the “Ratio CB1/CB2” value at human CB1 receptor amounted to 13.5. In addition, the inhibition constant (Ki) came to 12.3 nM at human CB1 receptor (read-out: CB1 Ki); 0.91 nM on human CB2 receptor (setting [6]); 0.91 nM on human CB2 receptor (Table 8, SEM in parentheses, n≧2 in triplicate, read-out: CB2 Ki). Further, at human CB2 receptor (CB2 over CB1), the “fold selectivity for the CB2 receptor” value came out at 13 fold. Besides, the “time to complete cell death” value in the test with C6 glioma cells is at most 5 h.
`CC1=CCC2C(C1)c1c(O)cc(C(C)(C)C3CCCCC3)cc1OC2(C)C` (centres unmarked) [Compound 28, 3-(1-Cyclohexyl-1-methyl-ethyl)-6,6,9-trimethyl-6a,7,10,10a-tetrahydro-6H-benzo[c]chromen-1-ol]: the “Ratio CB1/CB2” value is given as 0.87 at human CB1 receptor (setting [4]); 0.87 at human CB1 receptor (Table 3, ratio of Ki values); “binds both the subtypes with almost equal affinity” on human CB1 receptor (Table 3, ratio of Ki values, listed as 32). The inhibition constant (Ki) at human CB1 receptor (setting [7]) is 0.57 nM; at human CB2 receptor it was 0.65 nM. In test [1] (12 mg/kg with 2 mg/kg NS-398 (COX-2 inhibitor)), the “rapid increase in ΔMAP, level reached relative to basal MAP” value is at most 85%.
As for `CC1=CCC2C(C1)c1c(O)cc(C(C)(C)c3ccc(C)cc3)cc1OC2(C)C` (centres unmarked) [Compound 50, 6,6,9-Trimethyl-3-(1-methyl-1-p-tolyl-ethyl)-6a,7,10,10a-tetrahydro-6H-benzo[c]chromen-1-ol], the inhibition constant Ki at human CB1 receptor (setting [2]) was 2.13 nM; on human CB2 receptor, 0.88 nM. Also, the “Ratio CB1/CB2” value on human CB1 receptor (Table 8, ratio of Ki values) is given as 3.56. Moreover, the “CB2 Ki” value at human CB2 receptor (setting [3]) is reported as “sub-nanomolar”.
As to `CC1=CCC2C(C1)c1c(O)cc(C(C)(C)C3CCCCCC3)cc1OC2(C)C` (centres unmarked) [Compound 29, 3-(1-Cycloheptyl-1-methyl-ethyl)-6,6,9-trimethyl-6a,7,10,10a-tetrahydro-6H-benzo[c]chromen-1-ol], the Ki at human CB1 receptor (setting [7]) is 0.94 nM; at human CB2 receptor it was 0.22 nM.
